In one data set the test system is DENV2. Particulars: cell-based assay; cited from earlier work.
Data set [1] can be described thus: Cytotoxicity study (CellTiter 96 AQueous One) in LLC/MK2 cells. The data set is classed as cell-based. The note with it: rhesus monkey; for viability at 48 h, 10 µM / viability at 48 h, 25 µM: read-out: Cells viability (%, means ± SEM) LLC/MK2. Here is the method: (§1) The cytotoxicity of active compounds was tested on LLC-MK2, Vero, THP-1, HEK-293, HepG2 and C6/36 cell lines. Each cell line was seeded at 1 × 10^4 cells per well in 96-well plates and incubated overnight. The compounds were added at the indicated concentrations and the cells were incubated for 48 h, unless indicated otherwise. Cell viability was analyzed using CellTiter 96® AQueous One Solution Cell Proliferation Assay kit (Promega, Wisconsin-Madison, USA) according to manufacturer’s protocol. The plate was read at the A 450 in a VICTORTM × 3 microplate reader (PerkinElmer, Massachusetts, USA). Percent cell viability in compound-treated wells was calculated using reference DMSO-treated cells as a 100% cell viability control. The CC50 values of LLC/MK2 cells were calculated using nonlinear regression analysis. Results were reported as means and standard error of the means (SEM) of CC50 values of three independent experiments in which each drug concentration was tested in triplicate.

The test system of another data set is DENV2 NGC. Nature of the data set: Primary screening: compounds added to DENV2 infected LLC/MK2 cells, plaque titration of culture supernatants. The data set is classed as cell-based, Dengue virus. Particulars: for inhibition of virus production: 10 μM and 25 μM, summary of Table 1; for inhibition at 10 µM / inhibition at 25 µM: Dengue virus, DENV2, LLC-MK2, read-out: DENV2 inhibition (%, means ± SEM). Here is the method:
In this study, we selected 8 flavonoid derivatives (Fig. 1) and tested their effect on DENV2 NGC in a LLC/MK2 cell-based system. Briefly, the compounds at final concentrations of 10 μM and 25 μM in DMSO were added to DENV2 infected LLC/MK2 cells and the effect on viral particle production was measured by plaque titration of the culture supernatants. […] We also tested cytotoxicity of FV13, FV14, and CH1 to verify the viral inhibition in LLC/MK2 cells (Table 2). The viabilities of FV13 treated cells were 81.00 ± 2.69% and 59.40 ± 2.42%, at 10, and 25 µM respectively, whereas the values for FV14 treated cells were 60.24 ± 3.31% and 60.86 ± 3.57%. We also examined Vero, THP-1, HepG2, and HEK-293 cell viabilities in the presence of selected compounds (Table 2).
LLC/MK2 cells were seeded at 5 × 10^4 cells into each well of 24-well plate and incubated overnight at 37 °C under 5% CO2. Cells were infected with DENV2 at the multiplicity of infection (M.O.I.) of 0.1, unless indicated otherwise, for 1 h with gentle rocking every 15 min. Cells were washed with phosphate buffer saline (PBS) and incubated with 1 ml of MEM medium supplemented with 1% FBS as previously described. The compounds were prepared in dimethylsulfoxide (DMSO) at the indicated concentrations before addition to viral infected cells. Supernatants were collected after 5 day incubation and analyzed by plaque titration. In primary screening, DMSO-treated cells served as the untreated control. Compounds that inhibited virus production by ≥90% were selected for further characterization.

A short description of data set [2]: Cytotoxicity study (CellTiter 96 AQueous One) in HEK-293 cells. The data set is classed as cell-based. Particulars: human, read-out: Cells viability (%, means ± SEM) HEK-293. Here is the method:
as §1

The nature of data set [3]: Cytotoxicity study (CellTiter 96 AQueous One) in THP-1 cells. Particulars: human, read-out: Cells viability (%, means ± SEM) THP-1. It counts as cell-based. How it is done: as §1
A short description of data set [4]: Cytotoxicity study (CellTiter 96 AQueous One) in HepG2 cells. It counts as cell-based. The note with it: human, read-out: Cells viability (%, means ± SEM) HepG2. Here is the method:
as §1

The nature of data set [5]: Cytotoxicity study (CellTiter 96 AQueous One) in Vero cells. It counts as cell-based. Particulars: African green monkey, 48 h, read-out: Cells viability (%, means ± SEM) Vero. How it is done:
as §1

The test system of the next data set is Vero cells. Described as above. It counts as cell-based. Particulars: 10 and 25 µM; in words. How it is done:
as §1

On the set-up of data set [6]: method as in PMID 27098862, PMID 19397994. The note with it: animals and humans; in words; cited from earlier work.
A further data set relates to ZIKV (SV0010/15). Description: Antiviral efficacy (EC50) in virus infected LLC/MK2 cells, plaque assay. It counts as cell-based, Zika virus.
The subject of the next data set is LLC/MK2 cells. Nature of the data set: Cytotoxicity study (CellTiter 96 AQueous One) in LLC/MK2 cells. The note with it: LLC/MK2 cell viability at 120 h versus 48 h; in words. It counts as cell-based. How it is done: as §1
Another data set has as its system DENV3 (16562). Description: Antiviral efficacy (EC50) in virus infected LLC/MK2 cells, plaque assay. The data set is classed as cell-based, Dengue virus.
For a further data set, the system named is DENV2 (NGC). The description is as above. The data set is classed as cell-based, Dengue virus.
Another data set relates to DENV4 (c0036). The description is as above. It counts as cell-based, Dengue virus.
In a further data set the test system is DENV1 (16007). Described as above. The data set is classed as cell-based, Dengue virus. Particulars: Dengue virus, DENV1, LLC-MK2.
A short description of data set [7]: Cytotoxicity study, summary statements over human-derived cell lines. The data set is classed as cell-based. The note with it: HepG2 and HEK-293 cells, THP-1, HepG2, HEK-293, 10 and 25 µM, Table 2. How it is done:
as §1

The test system of data set [8] is BHK-21/DENV2 replicon cells. Nature of the data set: Replicon inhibition assay, RT-qPCR of replicon RNA. The note with it: Dengue virus, DENV2, BHK-21, 72 h, read-out: inhibition of DENV2 replicon replication. The data set is classed as cell-based. Here is the method: Next, we studied FV13 inhibition in a DENV2 replicon replication system to investigate whether translation and replication could be implicated as drug targets. BHK-21/DENV2 replicon cells[28] were treated with 5 and 10 µM FV13 and incubated for 72 h before measuring replication efficiency by quantifying replicon RNA. Ribavirin, a known dengue virus replication inhibitor[29], was used as a positive control.
After supernatant collection, the remaining cells in experimental plates were extracted for viral RNAs using TRIzol reagent (Invitrogen, California, USA) according to the manufacturer’s protocol. The samples were loaded into the Direct-zol™ RNA MiniPrep (Zymo research, California, USA) and quantified by Nanodrop spectrophotometry (Eppendorf, New York, USA). The RT-qPCR was performed with a Step-OnePlus Real-Time PCR System (Applied Biosystems, California, USA.) with 1 × Power SYBRGreen PCR Master Mix, 400 nM each of capsid primers[40] or 250 nM of NS1 primers[41] and 0.1 µg of total RNA. The reactions were then cycled at 48 °C 30 min and 95 °C 10 min, followed by 45 cycles of 95 °C for 20 s (denaturation), 55 °C for 30 s (annealing), 72 °C for 30 s (extension). Each sample was analyzed in triplicated and results were confirmed by two independent experiments.
BHK-21 cells expressing a DENV2 replicon (BHK-21/DENV2) were maintained in minimal essential medium (MEM) supplemented with 10% fetal bovine serum (FBS), and 0.3 mg/ml G418 (Bio Basic Canada, Ontario, Canada). The protocol was adapted from Boonyasuppayakorn et al., 2014 [28]. Briefly, cells (5 × 10^4/well) were seeded into 24-well plates and were incubated for 1 day at 37 °C in a humidified CO2 chamber followed by addition of the compounds in 1% DMSO at final concentrations of 5 µM and 10 µM. DMSO (1%) alone was used as the no-inhibitor control (0% inhibition) and the reference compound was ribavirin (TargetMol, Massachusetts, USA) at a final concentration of 5 µM or 10 µM. Cells were incubated at 37 °C for 72 h and lysed to quantify DENV2 replicons by RT-qPCR. Data were reported as percent inhibition compared with ribavirin, as a reference compound and DMSO, 0% inhibition. Results were confirmed by three independent experiments.
(In general: A replicon is a self-replicating genome or part of one, used to study replication in cells.)

Method for DENV1 (16007): (§2) Compound at various concentrations were added to virus infected LLC/MK2 cells and viral titers were accessed by plaque titration of supernatants as previously described.
(§3) LLC/MK2 cells were seeded at 5 × 10^4 cells into each well of 24-well plate and incubated overnight at 37 °C under 5% CO2. Cells were infected with DENV2 at the multiplicity of infection (M.O.I.) of 0.1, unless indicated otherwise, for 1 h with gentle rocking every 15 min. Cells were washed with phosphate buffer saline (PBS) and incubated with 1 ml of MEM medium supplemented with 1% FBS as previously described. The compounds were prepared in dimethylsulfoxide (DMSO) at the indicated concentrations before addition to viral infected cells. Supernatants were collected after 5 day incubation and analyzed by plaque titration[9].
(§4) Compounds were prepared in DMSO at 8–12 different concentrations and added to virus infected cells as previously described. Supernatants were collected and the EC50 values were calculated from nonlinear regression analysis.
Method for DENV2 (NGC): as §2, §3, §4
Method for DENV3 (16562): as §2, §3, §4
Method for DENV4 (c0036): as §2, §3, §4
Method for ZIKV (SV0010/15): as §2, §3, §4

On to `O=C(O)[C@H]1O[C@@H](Oc2cc3oc(-c4ccccc4)cc(=O)c3c(O)c2O)[C@H](O)[C@@H](O)[C@@H]1O` [Baicalin], for which the 50% effective concentration (EC50) in the data set on DENV2 was 30.2 µM.

For the compound `COc1ccc(/C=C/C(=O)c2ccccc2O)cc1` [CH1], the viability at 48 h, 10 µM is 61.5 ± 6.43% in data set [1]; 98.3 ± 2.95% in data set [2]; 93.1 ± 4.99% in data set [3]; 71 ± 1.71% in data set [4]; > 100% in data set [5]. Besides, the viability at 48 h, 25 µM in data set [1] was 59.1 ± 7.42%; in [2], 41.3 ± 0.54%; in data set [3], 84.8 ± 2.38%; in data set [4], 35.3 ± 1.34%; in [5], 80.4 ± 9.81%. In addition, the “inhibition of virus production” value in the data set on DENV2 NGC is on record as > 99%. Also, in the data set with DENV2 NGC, the inhibition at 10 µM is 99.78 ± 0.08%. Further, the inhibition at 25 µM in the data set on DENV2 NGC was found to be 99.75 ± 0.15%. In addition, the “sensitivity of Vero cells to the compound” value in the data set on Vero cells is on record as “not”.

Take `O=C(/C=C/c1ccc(O)cc1)c1ccccc1O` [CH2]: in the data set with DENV2 NGC, the inhibition at 10 µM was determined as 52 ± 8.49% and the inhibition at 25 µM was determined as 76 ± 4.24%.

`COc1cc(O)c2c(c1)OC(c1ccccc1)CC2=O` (stereo not shown) [FN2]: in the data set with DENV2 NGC, the inhibition at 10 µM worked out at 62 ± 2.45% and the inhibition at 25 µM stood at 85 ± 3%.

As for `O=c1cc(-c2ccccc2)oc2cc(O)cc(O)c12` [FV2, 5,7-dihydroxyflavone], in the data set with DENV2 NGC, the inhibition at 10 µM was found to be 43 ± 3% and the inhibition at 25 µM worked out at 92.8 ± 3.06%. The oral bioavailability entry in [6] is on record as “poor”.

On to `COc1cc(O)c2c(=O)c(OC)c(-c3ccccc3)oc2c1` [FV4], for which, in the data set with DENV2 NGC, the inhibition at 10 µM is 38 ± 6.48% and the inhibition at 25 µM came out at 61 ± 3%.

As for `COc1cc(OC)c2c(=O)cc(-c3ccccc3)oc2c1` [FV6], in the data set on DENV2 NGC, the inhibition at 10 µM stood at 55 ± 3% and the inhibition at 25 µM was found to be 76 ± 7.35%.

For `O=c1cc(-c2ccccc2)oc2c(I)c(O)c(I)c(O)c12` [FV14, 6,8-diiodo-5,7-dihydroxyflavone], the “S.I. Selectivity index (CC50/EC50)” value is given as 32.14 with ZIKV (SV0010/15) (CC50 in LLC/MK2); 43.64 with DENV3 (16562) (DENV3 (16562), CC50 in LLC/MK2); 20.37 in the data set on DENV2 (NGC) (DENV2 (NGC), CC50 in LLC/MK2); 34.50 with DENV4 (c0036) (DENV4 (c0036), CC50 in LLC/MK2). Also, the EC50 in the data set on ZIKV (SV0010/15) (Zika virus, LLC/MK2, plaque assay in 24-well plates) amounted to 1.39 ± 0.11 µM; with DENV3 (16562) (Dengue virus, DENV3, LLC-MK2), 1.02 ± 0.31 µM; in the data set with DENV2 (NGC) (Dengue virus, DENV2, LLC-MK2) it was 2.19 ± 0.31 µM; with DENV4 (c0036) (Dengue virus, DENV4, LLC-MK2), 1.29 ± 0.6 µM; with DENV1 (16007), 2.3 ± 0.92 µM. Moreover, the viability at 48 h, 10 µM in data set [1] (LLC/MK2 cells) is 60.2 ± 3.31%; in [2] (HEK-293 cells) it was 80.5 ± 3.18%; in data set [3] (THP-1 cells) it was 86.1 ± 2.76%; in data set [4] (HepG2 cells), 85.6 ± 3.04%; in data set [5] (Vero cells), 45.4 ± 1.17%. In addition, the viability at 48 h, 25 µM was 60.9 ± 3.57% in data set [1] (LLC/MK2 cells); 48.4 ± 5.76% in [2] (HEK-293 cells); 93.9 ± 7% in data set [3] (THP-1 cells); 87.01 ± 0.52% in data set [4] (HepG2 cells); 34.1 ± 2.18% in data set [5] (Vero cells). The CC50 at 48 h in data set [1] (LLC/MK2 cells, 48 h incubation, read-out: CC50 (cytotoxic concentration)) stood at 42.5 ± 2.53 µM. For the same compound, in the data set on LLC/MK2 cells, the “effect of long term incubation on cytotoxicity” value is reported as “significantly greater cytotoxicity at 120 h”. Further, the “inhibition of virus production” value with DENV2 NGC was > 99%. Also, in the data set with DENV2 NGC, the inhibition at 10 µM was 99.48 ± 0.43%. In the data set with DENV2 NGC, the inhibition at 25 µM was 99.63 ± 0.03%. Further, the viability at 48 h in data set [7] is > 80%. Further, in the data set on Vero cells, the “sensitivity of Vero cells to the compound” value is reported as “very sensitive”.

On to `O=C1C[C@@H](c2ccc(O)cc2)Oc2cc(O)cc(O)c21` [Naringenin], for which the EC50 in the data set on DENV2 is 18 µM.

`O=c1cc(-c2ccccc2)oc2cc(O)c(O)c(O)c12` [baicalein]: the EC50 in the data set on DENV2 was 23.9 µM.

Consider `O=c1c(O)c(-c2ccc(O)c(O)c2)oc2cc(O)ccc12` [fisetin], for which the EC50 in the data set with DENV2 was 192 µM.

For the compound `O=c1c(O)c(-c2ccc(O)c(O)c2)oc2cc(O)cc(O)c12` [quercetin], the EC50 with DENV2 was 118 µM.

As for `NC(=O)c1ncn([C@@H]2O[C@H](CO)[C@@H](O)[C@H]2O)n1` [ribavirin, reference compound], in data set [8], the inhibition at 5 µM is 87.4 ± 10.7% and the inhibition at 10 µM is 89.9 ± 4.83%.

Usually EC50 stands for the concentration that produces a half-maximal response. For orientation: inhibition means the change of the read-out against control, counted positive when it falls.

The values above are taken from paper PMC5651866, “Halogenated Chrysins Inhibit Dengue and Zika Virus Infectivity” (Scientific Reports, 2017).
